Reference: patent publication US11155517B2, “4-substituted phenylamine derivatives and their use to protect crops by fighting undesired phytopathogenic micoorganisms” (PI INDUSTRIES LTD., priority 2016, dated 2021)

Legend:
Pyricularia oryzae = experiment: microbe, parasite or virus in culture; type: cell-based; settings: 168 h, read-out: % control compared to the untreated check (radial growth)
Alternaria solani = Alternaria solani (early blight of tomato/potato) in vitro test, radial growth on Potato Dextrose Agar; type: cell-based; settings: 168 h, 300 ppm, seven days, 25° C., read-out: % control compared to the untreated check (radial growth)
Colletotrichum capsici = Colletotrichum capsici (anthracnose) in vitro test, radial growth on Potato Dextrose Agar; type: cell-based; settings: Colletotrichum truncatum, 168 h; 300 ppm; seven days, 25° C.; read-out: % control compared to the untreated check (radial growth)
Fusarium culmorum = Fusarium culmorum (foot rot of cereals) in vitro test, radial growth on Potato Dextrose Agar; type: cell-based; settings: Fusarium culmorum, 168 h, read-out: % control compared to the untreated check (radial growth)
Rhizoctonia solani = Rhizoctonia solani (rice sheath blight/potato black scurf) in vitro test, radial growth on Potato Dextrose Agar; type: cell-based; settings: 168 h, 300 ppm, seven days, 25° C., read-out: % control compared to the untreated check (radial growth)
Botrytis cinera = experiment: Greenhouse Botrytis cinera test in tomato, preventive; type: in vivo; settings: 24 h, plants sprayed one day before inoculation, read-out: Efficacy (% control), disease severity vs untreated check
Septoria lycopersici = Septoria lycopersici (leaf spot of tomato) in vitro test, radial growth on Potato Dextrose Agar; type: cell-based; settings: 168 h, seven days, 25° C., read-out: % control compared to the untreated check (radial growth)
Botrytis cinerea = Botrytis cinerea (gray mold) in vitro test, radial growth on Potato Dextrose Agar; type: cell-based; settings: 168 h, 300 ppm, seven days, 22° C., read-out: % (control) compared to the untreated check (radial growth)

SMILES | inhibition of growth at 300 ppm (Pyricularia oryzae) | inhibition of growth at 300 ppm (Alternaria solani) | inhibition of growth at 300 ppm (Colletotrichum capsici) | inhibition of growth at 300 ppm (Fusarium culmorum) | inhibition of growth at 300 ppm (Rhizoctonia solani) | pest or weed control at 500 ppm (Botrytis cinera) | inhibition of growth at 300 ppm (Septoria lycopersici) | inhibition of growth at 300 ppm (Botrytis cinerea)
CCN(C)C=Nc1cc(C)c(Cc2cccc(C)c2)cc1Cl [Compound 43, N′-(2-chloro-5-methyl-4-(3-methylbenzyl)phenyl)-N-ethyl-N-methylformimidamide] | > 75% | > 75% | > 80% | 75% | > 80% | 70 to 100% | > 70% | > 80%
CCN(C)C=Nc1cc(C)c(Cc2cccc(Cl)c2)cc1C [Compound 11, N′-(4-(3-chlorobenzyl)-2,5-dimethylphenyl)-N-ethyl-N-methylformimidamide] | > 75% | > 75% | > 80% | 75% | > 80% | 70 to 100% | – | > 80%
CCN(C)C=Nc1cc(C)c(Cc2ccc(Cl)c(Cl)c2)cc1C [Compound 5, N′-(4-(3,4-dichlorobenzyl)-2,5-dimethylphenyl)-N-ethyl-N-methylformimidamide] | > 75% | > 75% | > 80% | 75% | > 80% | 70 to 100% | > 70% | > 80%
CCN(C)C=Nc1cc(C)c(Cc2ccc(Br)cc2)cc1C [Compound 4, N′-(4-(4-bromobenzyl)-2,5-dimethylphenyl)-N-ethyl-N-methylformimidamide] | > 75% | > 75% | > 80% | 75% | > 80% | 70 to 100% | > 70% | > 80%
CCN(C)C=Nc1cc(C)c(Cc2cccc(Br)c2)cc1C [Compound 14, N′-(4-(3-bromobenzyl)-2,5-dimethylphenyl)-N-ethyl-N-methylformimidamide] | > 75% | > 75% | > 80% | 75% | > 80% | 70 to 100% | > 70% | > 80%
CCN(C)C=Nc1cc(C)c(Cc2ccc(Cl)c(F)c2)cc1C [Compound 105, N′-(4-(4-chloro-3-fluorobenzyl)-2,5-dimethylphenyl)-N-ethyl-N-methylformimidamide] | > 75% | > 75% | > 80% | 75% | > 80% | 70 to 100% | > 70% | > 80%
CCN(C)C=Nc1cc(C)c(Cc2ccc(C)c(C(F)(F)F)c2)cc1C [Compound 104, N′-(2,5-dimethyl-4-(4-methyl-3-(trifluoromethyl)benzyl)phenyl)-N-ethyl-N-methylformimidamide] | > 75% | > 75% | > 80% | 75% | > 80% | 70 to 100% | > 70% | > 80%
Cc1cc(N=CN2CCCCC2)c(C)cc1Cc1ccccc1Cl [Compound 59, N-(4-(2-chlorobenzyl)-2,5-dimethylphenyl)-1-(piperidin-1-yl)methanimine] | > 75% | > 75% | > 80% | 75% | > 80% | 70 to 100% | > 70% | > 80%
